Data taken from patent publication US20220409586A1, “TREATMENT AND PREVENTION OF NEUROINFLAMMATION OR AN INFLAMMATORY BRAIN DISORDER” (Inflazome Limited, priority 2019, published 2022).

Assay: Study A: blood-brain barrier penetration, MetaQuant microdialysis of left and right striatum after oral administration
Assay type: in vivo, mouse (C57Bl/6)
Settings: for average peak levels in left and right striatal dialysate: freely-moving adult male C57Bl/6 mice, corrected for dilution, not for recovery; for time of average peak levels in striatal dialysate after compound administration: mice, left and right striatum
Description: The present study was designed to determine the free concentration of the compound of formula (I) in the left and right striatum of freely-moving adult male mice after oral administration.
Adult male C57Bl/6 mice (22-28 g; Envigo, the Netherlands) were used for the experiments. Following arrival, animals were housed in groups of 5 in polypropylene cages (40×50×20 cm) with wire mesh top in a temperature (22±2° C.) and humidity (55±15%) controlled environment on a 12 hour light cycle (07.00-19.00). Following surgery, animals were housed individually (cages 30×30×40 cm). Standard diet (SDS Diets, RM1 PL) and domestic quality mains water were available ad libitum.
Mice were anesthetized using isoflurane (2% and 500 mL/min O2). Before surgery, Finadyne (1 mg/kg, s.c.) was administered for analgesia during surgery and the post-surgical recovery period. A mixture of bupivacaine and epinephrine was used for local analgesia of the incision site.
The animals were placed in a stereotaxic frame (Kopf instruments, USA). MetaQuant microdialysis probes with a 3 mm exposed polyacrylonitrile membrane (MQ-PAN 3/3) were implanted bilaterally into the left and right striatum (coordinates for the tip of the probe: AP=+0.8 mm (to bregma), ML=+/−1.7 mm (to midline), DV=−4.0 mm (to dura) with an angle of 0° and the incisor bar set at 0.0 mm. All coordinates were based on “The mouse brain in stereotaxic coordinates” by Paxinos and Franklin (2008). The probes were attached to the skull with a stainless-steel screw and dental cement.
The monosodium salt of the compound of formula (I) was formulated in sterilized tap water at concentrations (with respect to the non-salt form) of 0.2 and 4 mg/mL for oral dosing at 5 mL/kg; 1 mg/kg and 20 mg/kg, respectively.
The MetaQuant microdialysis probes were connected with flexible PEEK tubing (Western Analytical Products Inc. USA; PK005-020) to a microperfusion pump (Harvard) and perfused with a slow flow of artificial CSF (perfusate), containing 147 mM NaCl, 3.0 mM KCl, 1.2 mM CaCl2, and 1.2 mM MgCl2, at a flow rate of 0.12 μL/min and a carrier flow of UP+0.02 M FA+0.04% ascorbic acid at 0.8 μL/min. After a minimum of two hours of prestabilisation, microdialysis samples were collected in 60 minute intervals. Following collection of two baseline samples, the compound of formula (I) (1 or 20 mg/kg in sterilised tap water) was administered orally at t=0 minutes. […]
Microdialysate samples from MetaQuant probes contained a nominal volume of 55.2 μL dialysate. Levels of the compound of formula (I) in MetaQuant microdialysate samples were quantified by LC-MS/MS. […]
Suitable in-run calibration curves were fitted using weighted (1/x) regression and the sample concentrations were determined using these calibration curves. […]

average peak levels in left and right striatal dialysate (1 mg/kg oral, at 5 hours after administration): 12 to 13 nM | time of average peak levels in striatal dialysate after compound administration (1 mg/kg oral): 5 h | average peak levels in left and right striatal dialysate (20 mg/kg oral, at 6 hours after administration): 201 to 243 nM | time of average peak levels in striatal dialysate after compound administration (20 mg/kg oral): 6 h
Structure (SMILES): CC(C)n1ccc(S(=O)(=O)NC(=O)Nc2c3c(cc4c2CCC4)CCC3)n1 [compound of formula (I)]
